Assays:
Assay type in all cases: in vivo
Veronica persica [1] = assay: Pre-emergence herbicidal effect against VERPE; conditions: 1280 g/ha, visual score after 3 weeks, 100% = plants have died, 0% = like control plants
Summary of the method: (§1)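 Visual scoring of plant damage, in percent relative to untreated controls, was done 3 weeks after treatment. Compounds, as wettable powders or emulsion concentrates, were applied to covering soil over freshly sown seeds at a water rate of 600 to 800 L/ha with 0.2% wetting agent.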

Abutylon threophrasti [2] = assay: Post-emergence herbicidal effect against ABUTH; conditions: 1280 g/ha, visual assessment about 3 weeks after treatment, 100% = plants have died, 0% = like control plants
Summary of the method: (§2)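 Greenhouse test, sandy loam soil; one-leaf-stage plants sprayed 2–3 wk after sowing. Percent action rated by eye ~3 wk later against untreated plants.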

Abutylon threophrasti [3] = assay: Pre-emergence herbicidal effect against ABUTH; conditions: 1280 g/ha, visual score after 3 weeks, 100% = plants have died, 0% = like control plants
Source text: (§3) 1. Pre-emergence herbicidal effect and crop plant compatibility Seeds of monocotyledonous and dicotyledonous weed plants and crop plants are laid out in sandy loam soil in wood-fibre pots and covered with soil. The compounds of the invention, formulated in the form of wettable powders (WP) or as emulsion concentrates (EC), are then applied to the surface of the covering soil as aqueous suspension or emulsion at a water application rate equating to 600 to 800 L/ha with addition of 0.2% wetting agent. After the treatment, the pots are placed in a greenhouse and kept under good growth conditions for the trial plants. The damage to the test plants is scored visually after a test period of 3 weeks by comparison with untreated controls (herbicidal activity in percent (%): 100% activity=the plants have died, 0% activity=like control plants). [table]

Setaria viridis [4] = assay: Pre-emergence herbicidal effect against SETVI; conditions: 1280 g/ha, visual score after 3 weeks, 100% = plants have died, 0% = like control plants
Summary of the method: as §1

Veronica persica [5] = assay: Post-emergence herbicidal effect against VERPE; conditions: 1280 g/ha, visual assessment about 3 weeks after treatment, 100% = plants have died, 0% = like control plants
Summary of the method: as §2

Amaranthus retroflexus [6] = assay: Pre-emergence herbicidal effect against AMARE; conditions: 1280 g/ha, visual score after 3 weeks, 100% = plants have died, 0% = like control plants
Summary of the method: as §1

Digitaria sanguinalis [7] = assay: Post-emergence herbicidal effect against DIGSA; conditions: 1280 g/ha, visual score after about 3 weeks, 100% = plants have died, 0% = like control plants
Summary of the method: as §2

Echinochloa crus-galli [8] = assay: Pre-emergence herbicidal effect against ECHCG; conditions: 1280 g/ha, visual score after 3 weeks, 100% = plants have died, 0% = like control plants
Summary of the method: as §1

Stellaria media [9] = assay: Pre-emergence herbicidal effect against STEME; conditions: 1280 g/ha, visual score after 3 weeks, 100% = plants have died, 0% = like control plants
Summary of the method: as §1

Poa annua [10] = assay: Pre-emergence herbicidal effect against POAAN; conditions: 1280 g/ha, visual score after 3 weeks, 100% = plants have died, 0% = like control plants
Summary of the method: as §1

Setaria viridis [11] = assay: Post-emergence herbicidal effect against SETVI; conditions: 1280 g/ha, visual assessment about 3 weeks after treatment, 100% = plants have died, 0% = like control plants
Summary of the method: as §2

Poa annua [12] = assay: Post-emergence herbicidal effect against POAAN; conditions: 1280 g/ha, visual assessment about 3 weeks after treatment, 100% = plants have died, 0% = like control plants
Summary of the method: as §2

Digitaria sanguinalis [13] = assay: Pre-emergence herbicidal effect against DIGSA; conditions: 1280 g/ha, visual score after 3 weeks, 100% = plants have died, 0% = like control plants
Summary of the method: as §1

Bassia scoparia [14] = assay: Pre-emergence herbicidal effect against KCHSC; conditions: 1280 g/ha, visual score after 3 weeks, 100% = plants have died, 0% = like control plants
Source text: as §3

Lolium rigidum [15] = assay: Post-emergence herbicidal effect against LOLRI; conditions: 1280 g/ha, visual score after about 3 weeks, 100% = plants have died, 0% = like control plants
Method: [table] 2. Post-emergence herbicidal effect and crop plant compatibility Seeds of monocotyledonous and dicotyledonous weed and crop plants are laid out in sandy loam soil in wood-fibre pots, covered with soil and cultivated in a greenhouse under good growth conditions. 2 to 3 weeks after sowing, the test plants are treated at the one-leaf stage. The compounds of the invention, formulated in the form of wettable powders (WP) or as emulsion concentrates (EC), are then sprayed onto the green parts of the plants as aqueous suspension or emulsion at a water application rate equating to 600 to 800 l/ha with addition of 0.2% wetting agent. After the test plants have been left to stand in the greenhouse under optimal growth conditions for about 3 weeks, the action of the preparations is assessed visually in comparison to untreated controls (herbicidal action in percent (%): 100% activity=the plants have died, 0% activity=like control plants).

Stellaria media [16] = assay: Post-emergence herbicidal effect against STEME; conditions: 1280 g/ha, visual assessment about 3 weeks after treatment, 100% = plants have died, 0% = like control plants
Summary of the method: as §2

Alopecurus myosuroides [17] = assay: Pre-emergence herbicidal effect against ALOMY; conditions: 1280 g/ha, visual score after 3 weeks, 100% = plants have died, 0% = like control plants
Summary of the method: as §1

Bassia scoparia [18] = assay: Post-emergence herbicidal effect against KCHSC; conditions: 1280 g/ha, visual assessment about 3 weeks after treatment, 100% = plants have died, 0% = like control plants
Summary of the method: as §2

Echinochloa crus-galli [19] = assay: Post-emergence herbicidal effect against ECHCG; conditions: 1280 g/ha, visual score after about 3 weeks, 100% = plants have died, 0% = like control plants
Summary of the method: as §2

Lolium rigidum [20] = assay: Pre-emergence herbicidal effect against LOLRI; conditions: 1280 g/ha, visual score after 3 weeks, 100% = plants have died, 0% = like control plants
Summary of the method: as §1

[21] = test system: Tripleurospermum inodorum; assay: Post-emergence herbicidal effect against MATIN; conditions: 1280 g/ha, visual assessment about 3 weeks after treatment, 100% = plants have died, 0% = like control plants
Summary of the method: as §2

[22] = test system: Tripleurospermum inodorum; assay: Pre-emergence herbicidal effect against MATIN; conditions: 1280 g/ha, visual score after 3 weeks, 100% = plants have died, 0% = like control plants
Summary of the method: as §1

Amaranthus retroflexus [23] = assay: Post-emergence herbicidal effect against AMARE; conditions: 1280 g/ha, visual assessment about 3 weeks after treatment, 100% = plants have died, 0% = like control plants
Summary of the method: as §2

Alopecurus myosuroides [24] = assay: Post-emergence herbicidal effect against ALOMY; conditions: 1280 g/ha, visual score after about 3 weeks, 100% = plants have died, 0% = like control plants
Summary of the method: as §2

SMILES | Pre-emergence action against VERPE (Veronica persica [1]) [%] | Post-emergence action against ABUTH (Abutylon threophrasti [2]) [%] | Pre-emergence action against ABUTH (Abutylon threophrasti [3]) [%] | Pre-emergence action against SETVI (Setaria viridis [4]) [%] | Post-emergence action against VERPE (Veronica persica [5]) [%] | Post-emergence action against DIGSA (Digitaria sanguinalis [7]) [%] | Pre-emergence action against ECHCG (Echinochloa crus-galli [8]) [%] | Pre-emergence action against STEME (Stellaria media [9]) [%] | Pre-emergence action against POAAN (Poa annua [10]) [%] | Post-emergence action against SETVI (Setaria viridis [11]) [%] | Post-emergence action against POAAN (Poa annua [12]) [%] | Pre-emergence action against DIGSA (Digitaria sanguinalis [13]) [%] | Pre-emergence action against KCHSC (Bassia scoparia [14]) [%] | Post-emergence action against STEME (Stellaria media [16]) [%] | Pre-emergence action against ALOMY (Alopecurus myosuroides [17]) [%] | Post-emergence action against ECHCG (Echinochloa crus-galli [19]) [%] | Pre-emergence action against LOLRI (Lolium rigidum [20]) [%] | Post-emergence action against MATIN [21] [%] | Pre-emergence action against MATIN [22] [%] | Post-emergence action against ALOMY (Alopecurus myosuroides [24]) [%] | further results
O=C(O)CSc1nn(-c2ccccc2F)c(-c2cncc(F)c2)c1Br [II-005] | 100 | 90 | 90 | 100 | 100 | 100 | 100 | 100 | 100 | 100 | 100 | 100 | 90 | 100 | 100 | 100 | 100 | 100 | 100 | 100 | Pre-emergence action against AMARE (Amaranthus retroflexus [6]): 100%; Post-emergence action against LOLRI (Lolium rigidum [15]): 90%; Post-emergence action against KCHSC (Bassia scoparia [18]): 90%; Post-emergence action against AMARE (Amaranthus retroflexus [23]): 90%
CCOC(=O)CSc1nn(-c2ccccc2F)c(-c2cncc(Cl)c2)c1Br [II-007] | 100 | 90 | 90 | 100 | 100 | 100 | 100 | 100 | 100 | 90 | 100 | 100 | 100 | 100 | 100 | 100 | 100 | 100 | 100 | 100 | Pre-emergence action against AMARE (Amaranthus retroflexus [6]): 100%; Post-emergence action against AMARE (Amaranthus retroflexus [23]): 100%
O=C(O)CSc1nn(-c2ccccc2F)c(-c2ccc(F)c(F)c2)c1Cl [Example I-014] | 100 | 90 | 100 | 100 | 90 | 100 | 90 | 100 | 100 | 90 | 100 | 100 | 90 | 100 | 100 | 90 | 100 | 100 | 100 | 100 | Post-emergence action against LOLRI (Lolium rigidum [15]): 90%; Post-emergence action against KCHSC (Bassia scoparia [18]): 100%
COC(=O)CCNC(=O)CSc1nn(-c2ccccc2F)c(-c2cncc(F)c2)c1Br [VII-010] | 100 | 90 |  | 100 | 90 |  | 90 | 90 | 100 | 90 | 100 |  | 90 |  | 90 | 90 | 100 | 90 | 100 | 90 | Post-emergence action against LOLRI (Lolium rigidum [15]): 90%; Post-emergence action against KCHSC (Bassia scoparia [18]): 90%
CCOC(=O)C[S+]([O-])c1nn(-c2ccccc2F)c(-c2cncc(F)c2)c1Br (stereo not shown) [II-011] | 100 | 90 | 90 | 100 | 90 | 100 | 100 | 100 | 100 | 100 | 100 | 100 | 100 | 100 | 100 | 100 | 100 | 90 | 100 | 100 | Pre-emergence action against AMARE (Amaranthus retroflexus [6]): 100%; Post-emergence action against KCHSC (Bassia scoparia [18]): 100%; Post-emergence action against AMARE (Amaranthus retroflexus [23]): 90%
